Laboratory results from article PMC8300810, “Antibacterial Residue Excretion via Urine as an Indicator for Therapeutical Treatment Choice and Farm Waste Treatment” (Antibiotics, 2021).

Experiments:
[1] = Antimicrobial excretion in urine of treated pigs through the withdrawal period, LC-MS/MS
Procedure: Each of these compounds was administered via intramuscular (IM) injection.
A total of 66 previously untreated piglets were procured at treatment onset. Starting at 40 days before administration of the compounds, they were kept on the premises of the Faculty of Veterinary Sciences at the University of Zaragoza (Zaragoza, Spain) and used in tandem for another study. […] From them, 39 were female and 27, male. During acclimatization and withdrawal periods, the piglets were fed ad libitum with a special mixed feed free of antibiotics (ARS Alendi S.A., Huesca, Spain), and water was provided from a separate, controlled water circuit. Piglets were raised in separate pens depending on the antibiotic with which they were administrated.
Urine was collected on different days within the withdrawal period determined by the respective antimicrobial drug manufacturers. It was collected from live pigs via mobilization of the animal and bladder stimulation. At pre-set time intervals, pigs were slaughtered and urine was obtained via bladder puncture; at the same time, urine was gathered from living animals subjected to the same treatment and withdrawal period. Consequently, urine was collected from 1 to 9 pigs on each day of analysis. As animals were bred in batches and slaughtered all along the withdrawal period, the number of sampled animals decreased as the withdrawal period progressed. Samples were kept aliquoted and frozen at −20 °C until analysis.
1.5 mL of urine were spiked with 100 µL of IS spiking solution. 100 µL 0.1M EDTA and 5 mL of purified water were added and mixed. 500 µL were taken and further diluted with 1500 µL of purified water. It was filtered through 0.2 µm directly into HPLC vials.
All urine samples were analysed using a SCIEX Exion LC coupled to a TripleQuad 6500+ triple quadrupole detector equipped with an Acquity UPLC® BEH C18 column (1.7 µm, 2.1 × 100 mm). The mobile phase consisted of eluent A (0.1% formic acid in water) and eluent B (0.1% formic acid in acetonitrile) at a flow rate of 0.4 mL min^−1. […] The injected volume was 5 µL. Positive electrospray ionisation was used, and analytes were detected in MRM mode by monitoring 2 transitions for each compound of interest (Table 3). Regardless of the compound analysed, the technique’s limit of detection (LoD) was 10 ppb.
For each day of the withdrawal period pre-set in this study to evaluate the behaviour of antimicrobials, 1 to 9 samples of urine coming from different animals subjected to the same treatment and withdrawal period were analysed via LC-MS/MS.
The rates of elimination (λz) of antibiotics from urine were determined via regression analysis. The corresponding half-lives of elimination(T1/2) were calculated according to the following equation:
Equation (1): Half-life of elimination where T1/2 is the half-life of elimination and λZ is the rate of elimination. (1) T1/2=Ln (2)/λz

[2] = cited from earlier work
[3] = Concentration in urine compared with muscle of treated pigs; assay type: in vivo; conditions: Figure 4
Source text: Urine samples were obtained in parallel with muscle and blood samples gathered for the study performed by Serrano et al.. That study’s aim was to find a suitable matrix for ante mortem tests for the detection of antimicrobial compounds, which would avoid the slaughter of contaminated animals and thus the entrance of antimicrobial compounds into the food chain. The matrix should be characterized via an easy extraction procedure from living animals and a good correlation with the concentration found in muscle. […] These findings agree with those described previously by Seymour et al. for cows: urine samples from treated cows tested positive for the presence of antimicrobial residues even after the end of the withdrawal period set by the manufacturer. Moreover, this issue could also be interpreted as the occurrence of higher levels of antimicrobials in urine compared to other tissues such as muscle.
With the exception of sulfamethoxypyrydazine, concentrations described in urine were much higher than the ones described for muscle.

[4] = both, Landrace × Large White, pig, in vivo

| elimination period in urine [1, 4] | half-life ([1]; both, Landrace × Large White, pig, urine, im) | concentration in urine at the beginning of the withdrawal period (comparison among compounds) ([1]; pig, in vivo) | time period required to complete the excretion by urine (in words) ([1]; pig, in vivo) | concentrations in urine compared to muscle [3] | total urine elimination [1, 4] | time period required to complete the excretion by urine (in words) ([1]; urine, pigs, estimated from the regression) | Structure (SMILES) | fraction of administered antibiotic eliminated in the faeces [2] | fraction of administered antibiotic excreted in urine via glomerular filtration [2] |
| --- | --- | --- | --- | --- | --- | --- | --- | --- | --- |
| over 2 months | 100 h | highest concentrations | more than two months | much higher | – | – | CN(C)[C@@H]1C(O)=C(C(N)=O)C(=O)[C@@]2(O)C(O)=C3C(=O)c4c(O)cccc4[C@@](C)(O)[C@H]3[C@H](O)[C@@H]12 [Oxytetracycline] | 40% | 60% |
| – | – | – | – | – | ca. 1 weeks | – | COc1ccc(NS(=O)(=O)c2ccc(N)cc2)nn1 [Sulfamethoxypyridazine] | – | – |
| – | – | – | – | much higher | ca. 3 weeks | almost three weeks | CCN1CCN(c2cc3c(cc2F)c(=O)c(C(=O)O)cn3C2CC2)CC1 [Enrofloxacin] | – | – |
